From PubChem BioAssay (NCI)
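Dose response: 5 concentrations. Exposure: 48 h. Format: 96-well plates. Endpoint: linear interpolation; highest concentration if not reached. GI50 = concentration required for 50% inhibition of growth. TGI: concentration producing complete growth inhibition.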

How the values were obtained:
Assay in all cases: growth of human tumour cells (NCI), 48 h
[1] = system: 786-0 renal
[2] = system: A549 NSCLC
[3] = system: ACHN renal
[4] = system: BT-549 breast
[5] = system: CAKI-1 renal
[6] = system: CCRF-CEM leukemia
[7] = system: COLO 205 colon
[8] = system: DU-145 prostate
[9] = system: EKVX NSCLC
[10] = system: HCC-2998 colon
[11] = system: HCT-116 colon
[12] = system: HCT-15 colon
[13] = system: HL-60(TB) leukemia
[14] = system: HOP-62 NSCLC
[15] = system: HOP-92 NSCLC
[16] = system: HS 578T breast
[17] = system: HT29 colon
[18] = system: IGROV1 ovarian
[19] = system: K-562 leukemia
[20] = system: KM12 colon
[21] = system: LOX IMVI melanoma
[22] = system: M14 melanoma
[23] = system: MALME-3M melanoma
[24] = system: MCF7 breast
[25] = system: MDA-MB-231 breast
[26] = system: MDA-MB-435
[27] = system: MOLT-4 leukemia
[28] = system: NCI-H226 lung
[29] = system: NCI-H23 lung
[30] = system: NCI-H460 lung
[31] = system: NCI-H522 lung
[32] = system: NCI/ADR-RES ovarian
[33] = system: OVCAR-3 ovarian
[34] = system: OVCAR-4 ovarian
[35] = system: OVCAR-5 ovarian
[36] = system: OVCAR-8 ovarian
[37] = system: PC-3 prostate
[38] = system: RPMI-8226 leukemia
[39] = system: RXF 393 renal
[40] = system: SF-268 CNS
[41] = system: SF-295 CNS
[42] = system: SF-539 CNS
[43] = system: SK-MEL-2 melanoma
[44] = system: SK-MEL-28 melanoma
[45] = system: SK-MEL-5 melanoma
[46] = system: SK-OV-3 ovarian
[47] = system: SN12C renal
[48] = system: SNB-19 CNS
[49] = system: SNB-75 CNS
[50] = system: SR leukemia
[51] = system: SW-620 colon
[52] = system: T-47D breast
[53] = system: TK-10 renal
[54] = system: U251 CNS
[55] = system: UACC-257 melanoma
[56] = system: UACC-62 melanoma
[57] = system: UO-31 renal

## CCNCc1c(-c2cccc(OC(F)(F)F)c2)[nH]c2ccc(N3CCCC3)cc2c1=O
[1]
  GI50: 3.84 µM
  TGI: 20.6 µM
[2]
  GI50: 5.81 µM
  TGI: > 100 µM
[3]
  GI50: 6.73 µM
  TGI: > 100 µM
[4]
  GI50: 4.84 µM
  TGI: 44.6 µM
[5]
  GI50: 3.54 µM
  TGI: 17.6 µM
[6]
  GI50: 3.52 µM
  TGI: > 100 µM
[7]
  GI50: 2360 nM
  TGI: 5.74 µM
[8]
  GI50: 3.8 µM
  TGI: > 100 µM
[9]
  GI50: 12.3 µM
  TGI: > 100 µM
[10]
  GI50: 1880 nM
  TGI: 3.58 µM
[11]
  GI50: 3.46 µM
  TGI: 35.4 µM
[12]
  GI50: 3.47 µM
  TGI: 15.9 µM
[13]
  GI50: 2860 nM
  TGI: 9.69 µM
[14]
  GI50: 5.63 µM
  TGI: 73.8 µM
[15]
  GI50: 4.19 µM
  TGI: 38.4 µM
[16]
  GI50: 1940 nM
  TGI: 6.48 µM
[17]
  GI50: 3.53 µM
  TGI: > 100 µM
[18]
  GI50: 3.54 µM
  TGI: > 100 µM
[19]
  GI50: 3.4 µM
  TGI: > 100 µM
[20]
  GI50: 3.54 µM
  TGI: 20.7 µM
[21]
  GI50: 3.31 µM
  TGI: 12.5 µM
[22]
  GI50: 1950 nM
  TGI: 4.28 µM
[23]
  GI50: 1990 nM
  TGI: 4.41 µM
[24]
  GI50: 2570 nM
  TGI: 11.2 µM
[25]
  GI50: 2690 nM
  TGI: 9.28 µM
[26]
  GI50: 1950 nM
  TGI: 4.32 µM
[27]
  GI50: 3.88 µM
  TGI: 37.3 µM
[28]
  GI50: 9.29 µM
  TGI: > 100 µM
[29]
  GI50: 3.15 µM
  TGI: 10.7 µM
[30]
  GI50: 3.72 µM
  TGI: 16.2 µM
[31]
  GI50: 3.98 µM
  TGI: 23.1 µM
[32]
  GI50: 2480 nM
  TGI: 7 µM
[33]
  GI50: 3.45 µM
  TGI: 20.3 µM
[34]
  GI50: 7.77 µM
  TGI: > 100 µM
[35]
  GI50: 3.81 µM
  TGI: 43.5 µM
[36]
  GI50: 5.22 µM
  TGI: > 100 µM
[37]
  GI50: 3.87 µM
  TGI: > 100 µM
[38]
  GI50: 2440 nM
  TGI: 6.85 µM
[39]
  GI50: 2390 nM
  TGI: 7.61 µM
[40]
  GI50: 6.44 µM
  TGI: 69.2 µM
[41]
  GI50: 1970 nM
  TGI: 4.06 µM
[42]
  GI50: 2240 nM
  TGI: 5.85 µM
[43]
  GI50: 3.73 µM
  TGI: 17.2 µM
[44]
  GI50: 2250 nM
  TGI: 5.51 µM
[45]
  GI50: 2090 nM
  TGI: 4.42 µM
[46]
  GI50: 7.19 µM
  TGI: > 100 µM
[47]
  GI50: 4.12 µM
  TGI: 46.4 µM
[48]
  GI50: 4.03 µM
  TGI: > 100 µM
[49]
  GI50: 1420 nM
  TGI: 8.65 µM
[50]
  GI50: 2710 nM
  TGI: 12.4 µM
[51]
  GI50: 3.17 µM
  TGI: 13.7 µM
[52]
  GI50: 4.78 µM
  TGI: 59.3 µM
[53]
  GI50: 24.7 µM
  TGI: > 100 µM
[54]
  GI50: 3.23 µM
  TGI: 14.8 µM
[55]
  GI50: 2350 nM
  TGI: 6.08 µM
[56]
  GI50: 3.47 µM
  TGI: 14.3 µM
[57]
  GI50: 3.72 µM
  TGI: > 100 µM
